Data: BindingDB's records for patent US20250115590 (Foresee Pharmaceuticals USA, 2025)

Biological target: Macrophage metalloelastase (Homo sapiens, UniProt P39900)
Assay: MMP Inhibitory Assays
Method: The inhibitory effect of compounds on the rate of cleaving fluorogenic MMP substrate (Enzo, BML-P128) by recombinant human MMP-12 catalytic domain (Enzo, BML-SE138) was carried out by methods known in the art. Briefly, to each well of a 96-well black opaque plate, all the reagents were sequentially added by pipetting, and the final reaction contained 4 nM of recombinant human MMP-12 catalytic domain, […] MMP substrate, and various concentrations (0.15 nM to 10,000 nM) of tested compound dilutions in HEPES buffer (pH 7.5) containing 10 mM of CaCl2, 0.01% Brij 35 (polyoxyethylene (23) lauryl ether), and 0.1 mg/ml of BSA. The enzyme and compounds were pre-incubated on a shaker to mix in wells. After an hour of mixing, fluorogenic substrate was added to each well. Reaction without enzyme was used as a blank control in the plate. The plate was then fed into a plate reader to measure fluorescence intensity at Excitation/Emission wavelengths of 340 nm/440 nm every 10 mins for at least 1 hour at 37° C. The IC50 of each compound in MMP-12 inhibition was determined by using a readout obtained at time point 30 minutes.

Chain of Macrophage metalloelastase (P39900 whole entry): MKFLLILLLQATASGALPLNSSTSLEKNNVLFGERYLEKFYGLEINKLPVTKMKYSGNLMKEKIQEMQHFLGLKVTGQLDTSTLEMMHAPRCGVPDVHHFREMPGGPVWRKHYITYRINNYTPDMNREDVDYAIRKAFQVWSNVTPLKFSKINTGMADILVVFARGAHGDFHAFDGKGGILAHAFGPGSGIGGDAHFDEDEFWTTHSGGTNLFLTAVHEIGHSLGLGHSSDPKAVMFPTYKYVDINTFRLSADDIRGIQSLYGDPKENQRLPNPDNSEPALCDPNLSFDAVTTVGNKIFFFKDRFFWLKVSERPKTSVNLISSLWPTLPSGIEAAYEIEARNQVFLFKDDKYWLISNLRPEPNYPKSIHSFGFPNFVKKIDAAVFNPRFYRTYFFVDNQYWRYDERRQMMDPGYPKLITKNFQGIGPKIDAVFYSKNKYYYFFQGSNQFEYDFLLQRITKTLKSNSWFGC

Question: With Cc1cccc(COc2ccc(Sc3ocnc3C3NC(=O)NC3=O)cc2)c1 (configuration not stated) [US20250115590, Compound OC-8] as the molecule, how does the IC50 read?
Answer: > 1000 nM

Question: With O=C1NC(=O)C(c2ncoc2Sc2ccc(OCc3cccc(CO)c3)cc2)N1 (configuration not stated) [US20250115590, Compound OC-9] as the molecule, how does the IC50 read?
Answer: > 1000 nM
